Format in all cases: cell-based
The test system of experiment [1] is Actinomyces naeslundii (JCM8350). Put plainly: Growth inhibition activity (MIC, agar) against anaerobic bacteria. Particulars: Actinomyces naeslundii, JCM8350, 72 h, strain JCM8350; Trypticase Soy Broth agar, 37 degrees C. for 3 days; read-out: MIC (Minimum Inhibitory Concentration). The method, then: (§1) In the present invention, the growth inhibition activity, which is an indicator of the antimicrobial activity, is evaluated by determining the Minimum Inhibitory Concentration (MIC) with an agar or liquid medium.
(§2) In the test for growth inhibition activity, the following strains were used: • Acne bacteria: Propionibacterium acnes (JCM6473) and (ATCC6919) • Abscess bacteria: Bacteroides fragilis (GAI5560) • Cavity-causing bacteria: Streptococcus mutans (JCM5175), Actinomyces naeslundii (JCM8350) and Actinomyces viscosus (JCM8352) • Periodontal pathogen: Fusobacterium nucleatum (JCM6328), Porphyromonas gingivalis (JCM8525), Prevotella nigrescens (JCM6322)
(§3) The test strains were cultured in a GAM medium (Nissui Pharmaceutical Co., LTD), a Schaedler Broth (BBL) or a Trypticase Soy Broth (BBL) liquid medium, and then the grown bacteria were diluted in saline to prepare turbidity 0.5 McFarland of the bacteria fluids for inoculation. The bacteria were cultured at 37 degrees C. for 3 days under an anaerobic condition by using AnaeroPack® from MGC.
(§4) Furthermore, in order to examine the growth inhibition activities against the bacteria by the above cooling agent, the concentration of the cooling agents: (3S)-CA20, (3R)-CA20, CA1, CA5, CA15, CA55 or CA MGH was diluted with ethanol to the required level of concentrations for the determining the Minimum Inhibitory Concentration to produce the sample liquids.
(§5) Next, 100 μL of each sample liquid was added to 10 mL of a Trypticase Soy Broth agar medium solution in a soluble state, and each agar medium solution was poured into a petri dish and solidified, to prepare the test plates. Subsequently, 5 μL of above the bacteria fluids for inoculation were stamped on the test plates, and then the test plates were cultured at 37 degrees C. for 3 days.
(§6) The minimum concentration of the cooling agent in which the growth of bacteria could not be confirmed was considered as the MIC (Minimum Inhibitory Concentration).
as §6

In experiment [2] the test system is Porphyromonas gingivalis (JCM8525). The description is as above. The settings on record: Porphyromonas gingivalis, JCM8525, 72 h, strain JCM8525; Trypticase Soy Broth agar, 37 degrees C. for 3 days; read-out: MIC (Minimum Inhibitory Concentration). The method, then:
as §1, §2, §3, §4, §5, §6, §6

For experiment [3], the system named is Staphylococcus aureus (JCM2151). Put plainly: Growth inhibition activity (MIC, agar) against aerobic bacteria. Particulars: Staphylococcus aureus; strain JCM2151; Mueller Hinton Agar, 37 degrees C. overnight; read-out: MIC (Minimum Inhibitory Concentration). The method, then: as §1
(§7) In the test for the growth inhibition activity, the following strains were used as skin-related bacteria: • Staphylococcus epidermidis: Staphylococcus epidermidis (JCM2414T and ATCC 12228) • Staphylococcus aureus: Staphylococcus aureus (NBRC12732 and JCM2151) • Skin indigenous bacteria which introduce a superficial infection: Corynebacterium minutissimum (NBRC15361T) • Armpit odor-causing bacteria: Corynebacterium xerosis (JCM1324)
(§8) The test strains were cultured in the liquid medium which the Bioresource center recommends, and then the test strains were subcultured to a Mueller Hinton Broth (Difco) at 30 degrees C. The grown bacteria were diluted to 10^6 CFU/ml with saline to adjust the bacteria fluids for inoculation.
(§9) Furthermore, in order to examine the growth inhibition activities against the bacteria by the above cooling agents, the concentration of the cooling agents: (3S)-CA20, (3R)-CA20, CA1, CA5, CA15, CA55 or CA MGH was diluted with ethanol to the required level of concentration for the determining the Minimum Inhibitory Concentration to produce the sample liquids.
(§10) Next, 100 μL of each sample liquid was added to 10 mL of a Mueller Hinton Agar (Difco) agar medium solution in a soluble state, and each agar medium solution was poured into a petri dish and solidified to prepare test plates having several concentrations of the sample liquids (several concentrations of the above cooling agents). Subsequently, 5 μL of the above bacteria fluids for inoculation were stamped on the test plates, and then the test plates were cultured at 37 degrees C. overnight.
(§11) In this way, the growth inhibition activities by (3S)-CA20, (3R)-CA20, CA1, CA5, CA15, CA55, CA MGH were examined. The minimum concentration of the cooling agent in which the growth of bacteria could not be confirmed was considered as the MIC (Minimum Inhibitory Concentration).
(§12) The minimum concentration of the cooling agent in which the grown strain could not be confirmed was considered as the MIC (Minimum Inhibitory Concentration).

Experiment [4] deals with Staphylococcus epidermidis (JCM2414T). The experiment is described as above. Particulars: Staphylococcus epidermidis, strain JCM2414T; Mueller Hinton Agar, 37 degrees C. overnight; read-out: MIC (Minimum Inhibitory Concentration). The method, then: as §1, §7, §8, §9, §10, §11, §12
For experiment [5], the system named is Corynebacterium xerosis (JCM1324). The experiment is described as above. The settings on record: Corynebacterium xerosis; strain JCM1324; Mueller Hinton Agar, 37 degrees C. overnight; read-out: MIC (Minimum Inhibitory Concentration). The method, then: as §1, §7, §8, §9, §10, §11, §12
The test system of experiment [6] is Staphylococcus aureus (NBRC12732). The experiment is described as above. Particulars: Staphylococcus aureus; strain NBRC12732; Mueller Hinton Agar, 37 degrees C. overnight; read-out: MIC (Minimum Inhibitory Concentration). The method, then:
as §1, §7, §8, §9, §10, §11, §12

In experiment [7] the test system is Corynebacterium minutissimum (NBRC15361T). Described as above. Particulars: Corynebacterium minutissimum; strain NBRC15361T; Mueller Hinton Agar, 37 degrees C. overnight; read-out: MIC (Minimum Inhibitory Concentration). The method, then:
as §1, §7, §8, §9, §10, §11, §12

For another experiment, the system named is target microbe species. In words: Growth inhibition activity compared with 3-menthoxypropane-1,2-diol. Particulars: depending on kinds of target microbe species.
Excerpt: Although the all present cooling agents can have growth inhibition activities against both aerobic and anaerobic microorganisms (e.g. bacteria and fungi, etc.), menthyl 3-hydroxybutanoate and 3-menthoxypropan-1-ol have specifically high growth inhibition activities and potent growth inhibition activities against both aerobic and anaerobic microorganisms. Examples of microorganisms include Corynebacterium, Actinomyces and so on. Menthyl 3-hydroxybutanoate and 3-menthoxypropan-1-ol have 2 to 8 times as much growth inhibition activity as 3-menthoxypropane-1,2-diol (which is known as an antimicrobial agent), and can have more than or equal to 8 times as much growth inhibition activity as 3-menthoxypropane-1,2-diol, depending on kinds of target microbe species.
Furthermore, when compared 2-methyl-3-(menthoxy)propane-1,2-diol with 3-menthoxypropane-1,2-diol (which is known as an antimicrobial agent), the former has about 2 times as much growth inhibition activity as the latter, depending on kinds of target microbe species. […]
as §1

In experiment [8] the test system is Staphylococcus epidermidis (ATCC 12228). Put plainly: Growth inhibition activity (MIC, agar) against aerobic bacteria. The settings on record: strain ATCC12228, Mueller Hinton Agar, 37 degrees C. overnight, read-out: MIC (Minimum Inhibitory Concentration). The method, then:
as §1, §7, §8, §9, §10, §11, §12

The structures appear in SMILES notation. In brackets after ≈: the same amount, converted by molar mass.

As for `CC(O)CC(=O)OC1CC(C)CCC1C(C)C` [(3S)-CA20, menthyl 3-hydroxybutanoate], the MIC in [1] was 100 µg/mL (≈ 0.413 mM); in experiment [2], below 50 µg/mL; in [3], 100 µg/mL (≈ 0.413 mM); in [4], 100 µg/mL (≈ 0.413 mM); in experiment [5], 100 µg/mL (≈ 0.413 mM); in [6], 200 µg/mL (≈ 0.825 mM). In addition, the MIC in [7] worked out at 200 µg/mL (≈ 0.825 mM).
As for `CC1CCC(C(C)C)C(OCC(C)(O)CO)C1` (stereo not shown) [CA1, 2-methyl-3-(menthoxy)propane-1,2-diol], the MIC is 800 µg/mL (≈ 3.27 mM) in experiment [1]; 200 µg/mL (≈ 0.818 mM) in experiment [2]; 400 µg/mL (≈ 1.64 mM) in [3]; 400 µg/mL (≈ 1.64 mM) in experiment [4]; 800 µg/mL (≈ 3.27 mM) in experiment [5]; 800 µg/mL (≈ 3.27 mM) in [6]. In addition, the values for the MIC in experiment [8] and in experiment [7] were 800 µg/mL (≈ 3.27 mM) and 400 µg/mL (≈ 1.64 mM), respectively. Further, the “growth inhibition activity as multiple of 3-menthoxypropane-1,2-diol” value in the experiment on target microbe species is given as “about 2 times”.
With `CC1CCC(C(C)C)C(OCCO)C1` (stereo not shown) [CA5, 2-(menthoxy)ethanol], the MIC is 800 µg/mL (≈ 3.99 mM) in experiment [1]; 400 µg/mL (≈ 2 mM) in experiment [3]; 800 µg/mL (≈ 3.99 mM) in [4]; 800 µg/mL (≈ 3.99 mM) in [5]; 800 µg/mL (≈ 3.99 mM) in [6]; 800 µg/mL (≈ 3.99 mM) in experiment [8]. The MIC in experiment [7] stood at 800 µg/mL (≈ 3.99 mM).
With `CC1CCC(C(C)C)C(OCC(O)CO)C1` (stereo not shown) [CA10, 3-menthoxypropane-1,2-diol, reference compound], the MIC was 800 µg/mL (≈ 3.47 mM) in [1]; 800 µg/mL (≈ 3.47 mM) in experiment [3]; 800 µg/mL (≈ 3.47 mM) in experiment [4]; 800 µg/mL (≈ 3.47 mM) in experiment [5]; 1600 µg/mL (≈ 6.95 mM) in [6]; 1600 µg/mL (≈ 6.95 mM) in experiment [8]. Also, in experiment [7], the MIC was 800 µg/mL (≈ 3.47 mM).
With `CC1CCC(C(C)C)C(OCCCO)C1` (stereo not shown) [CA15, 3-menthoxypropan-1-ol], the MIC turned out to be 400 µg/mL (≈ 1.87 mM) in experiment [1]; 200 µg/mL (≈ 0.933 mM) in experiment [3]; 400 µg/mL (≈ 1.87 mM) in experiment [4]; 400 µg/mL (≈ 1.87 mM) in experiment [5]; 400 µg/mL (≈ 1.87 mM) in [6]; 400 µg/mL (≈ 1.87 mM) in [8]. Also, the MIC in experiment [7] came out at 200 µg/mL (≈ 0.933 mM).
In the case of `CC1CCC(C(C)(C)O)C(O)C1` (stereo not shown) [CA38, p-menthane-3,8-diol, reference compound], the MIC in experiment [1], in experiment [3], in experiment [4], in [5], in experiment [6] and in [8] was above 1600 µg/mL in each case. Further, the MIC in experiment [7] was above 1600 µg/mL.
Regarding `CC1CCC(C(C)C)C(OCCOCCO)C1` (stereo not shown) [CA55, 2-(2-menthoxyethoxy)ethanol], the MIC in experiment [1], in experiment [3], in experiment [4], in experiment [5], in experiment [6] and in experiment [8] was 800 µg/mL (≈ 3.27 mM) each time. Also, the MIC in experiment [7] was 800 µg/mL (≈ 3.27 mM).
Turning to `CC1CCC(C(C)C)C(OC(=O)C=O)C1` (stereo not shown) [CA MGH, menthyl glyoxylate], the MIC is 200 µg/mL (≈ 0.942 mM) in experiment [1]; 50 µg/mL (≈ 0.236 mM) in [2]; 100 µg/mL (≈ 0.471 mM) in experiment [3]; 50 µg/mL (≈ 0.236 mM) in experiment [4]; 100 µg/mL (≈ 0.471 mM) in experiment [5]; 100 µg/mL (≈ 0.471 mM) in [6]. In addition, the MIC was found to be 50 µg/mL (≈ 0.236 mM) in [8] and 100 µg/mL (≈ 0.471 mM) in experiment [7].
Consider `CNC(=O)C(C)(C(C)C)C(C)C` [WS-23, N-methyl-2-isopropyl-2,3-dimethylbutanamide, reference compound], for which the MIC in experiment [1], in experiment [2], in experiment [3], in [4], in experiment [5] and in experiment [6] was above 1600 µg/mL in each case. Also, in experiment [7], the MIC was above 1600 µg/mL.
Consider `CC1CCC(C(C)C)C(O)C1` (stereo not drawn) [l-menthol, menthol, reference compound], for which the MIC in [1], in [3], in experiment [4], in [5], in experiment [6] and in experiment [8] was 1600 µg/mL (≈ 10.2 mM) in each case. In addition, the MIC in experiment [7] is 1600 µg/mL (≈ 10.2 mM).

(Values after patent publication US20140163099A1, “ANTIMICROBIAL COMPOSITION” (TAKASAGO INTERNATIONAL CORPORATION, priority 2011, published 2014).)
